The values that follow come from patent publication US7943338B2, “Autoimmune conditions and NADPH oxidase defects” (Arexis AB, priority 2002, dated 2011).

Data set [1] deals with DA rats. The data set can be described thus: Treatment of active PIA with phytol or undecane. The data set is classed as in vivo, Rat (Rattus norvegicus). The following applies: 200 μL i.p. or i.d. at day 21 and day 26; FIG. 23. As for the experimental part: Groups of DA rats were injected with […] at day 0. The […] (150 μL) was injected intra-dermal at the base of the tail. The rats were scored from day 9 using the extended scoring system (see above). Then, the rats were treated at day 21 and at day 26 with one of the following alternatives: (1) 200 μL phytol intra-peritoneal; (2) 200 μL phytol intra-dermal at the base of the tail; (3) 200 μL undecane intra-peritoneal; (4) 200 μL undecane intra-dermal at the base of the tail; or (5) control untreated.

Data set [2] deals with DA rats. In words: Collagen induced arthritis (CIA) in rats treated with phytol. It is filed as in vivo, Rat (Rattus norvegicus). The following applies: FIG. 22. As for the experimental part:
DA rats were treated according to one of the following alternatives: (1) 200 μL phytol intra-dermal at the base of the tail at day −10; (2) 200 μL phytol intra-dermal at the base of the tail at day −5; (3) 200 μL phytol intra-peritoneal at day −5 and day +5; or (4) control untreated. CIA was induced in all animals at day 0 by injecting […] of collagen II dissolved in 75 μL 0.1 M Acetic acid and emulsified in 75 μL IFA. The rats were scored from day 10 using the extended scoring system (see above).

The conditions of data set [3]: in vivo; cited from earlier work.
Data set [4] deals with DA rats. The data set can be described thus: Treatment of experimental allergic encephalomyelitis (EAE) with phytol. It is filed as in vivo, Rat (Rattus norvegicus). The following applies: 200 μL phytol at day -10 and day +5; olive oil control; p<0.05; FIG. 16. How it is done: Groups of DA rats were injected at the base of the tail with 200 μL phytol at day -10, day -5, and day +5. Olive oil was used as a control. At day 0, all rats were treated (immunized) with 200 μL SCH (DA spinal cord homogenate, to induce EAE) i.d. at the base of the tail. The rats were then scored according to the following scale for 40 days: • 0=Normal • 1=Tail weakness • 2=Tail paralysis • 3=Tail paralysis and mild […] • 4=Tail paralysis and severe […] • 5=Tail paralysis and paralysis of one limb • 6=Tail paralysis and paralysis of a pair of limbs • 7=Tetra-paresis • 8=Pre-morbid or dead.

Data set [5] concerns DA rats. The data set can be described thus: Route of administration of phytol in treatment of PIA. It is filed as in vivo, Rat (Rattus norvegicus). The following applies: FIG. 17. How it is done:
Groups of DA rats were treated with phytol according to one of the following treatment regimens at day −5 and at day +5. All rats were injected with […] (200 μL) at day 0 intradermally at the base of the tail. Phytol was administered to groups of rats as follows: • 25 μL phytol intranasally (i.n.); • 200 μL phytol intraperitoneally (i.p.); • 200 μL phytol intradermally at the base of the tail (i.d.); and • 1 mL phytol per os (p.o.).
The rats were scored from day 9 using the extended scoring system (as discussed previously).

Data set [6] has as its system DA rats. The data set can be described thus: Treatment of hexadecane-induced arthritis with hexadecene. It is filed as in vivo, Rat (Rattus norvegicus). As for the experimental part:
Groups of DA rats were injected i.d. at the base of the tail as follows: • Hexadecane 200 μL day 0; • Hexadecene 200 μL day 0; • Hexadecene 200 μL day −5, Hexadecane 200 μL day 0; • Olive oil 200 μL day −5, Hexadecane 200 μL day 0; • Hexadecene 200 μL day +5, Hexadecane 200 μL day 0; and • Olive oil day 200 μL +5, Hexadecane 200 μL day 0.
The rats were scored as indicated above. Olive oil was used as a control.

The nature of data set [7]: Lymph node distribution of 14C-hexadecane after hexadecene at day -5. The data set is classed as in vivo, Rat (Rattus norvegicus). Particulars: hexadecene 0, 50, 100 or 200 μL day -5; 14C-hexadecane day 0; day 10. How it is done: An experiment was performed to determine if oils compete for available space in the lymph nodes and if such a competition was the reason for the preventive effects of pre-treatment with hexadecene and undecane. At day −5, DA rats were injected with one of the following amounts of hexadecene: 0 μL, 50 μL, 100 μL, or 200 μL. At day 0, all rats were injected intradermally with 14C-hexadecane at the base of the tail. At day 10, the rats were sacrificed and the lymph nodes were collected and placed in PBS, homogenized, and frozen. 1 mL of the homogenate was then transferred to Ready Safe (Beckman) and analysed in a β-counter (Beckman).

Entries after “also recorded” stand apart in the source; their conditions may differ.

Take `C/C(=C\CO)CCC[C@H](C)CCC[C@H](C)CCCC(C)C` [phytol]: in data set [1], the “effect on active arthritis in PIA rat model” value is reported as “effective against active arthritis”. The “development of arthritis in CIA rat model” value in data set [2] (200 μL phytol intra-dermal day -10 or day -5) was “prevented development of arthritis”; in data set [2] (200 μL phytol intra-peritoneal day -5 and day +5), “prevented development of arthritis”. For the same compound, in data set [3], the arthritis induction entry was “do not”. In addition, the “additive score and maximum score of EAE, phytol vs control rats” value in data set [4] is on record as “significant difference”. The “effect on PIA” value is “ameliorative and preventive effects” in data set [5] (25 μL phytol i.n. day -5 and day +5); “ameliorating and preventive effect” in data set [5] (200 μL phytol i.d. day -5 and day +5); “ameliorative and preventive effects” in data set [5] (200 μL phytol i.p. day -5 and day +5).
As to hexadecene, in data set [3], the arthritis induction result was “do not”. For the same compound, the arthritis-inducing capacity result in data set [6] (200 μL i.d. day 0 alone, FIG. 12, p<0.05 hexadecane vs hexadecene) is recorded as “does not”. Also, the “development of hexadecane induced arthritis” value in data set [6] (hexadecene 200 μL i.d. day -5 or day +5, hexadecane day 0) is on record as “None of the rats treated with hexadecene developed arthritis; also recorded: None of the rats treated with hexadecene showed any symptoms of arthritis”. The “difference in arthritis scores vs control rats” value in data set [6] (hexadecene day -5 and day +5, p<0.05) is reported as “significant”. Also, the “amount of hexadecane in draining lymph nodes” value in data set [7] was “not affected”.
